From US4431652A, “4-Hydroxy-5-substituted-3(2H)-isothiazolone-1,1-dioxide derivatives useful in treating urinary tract calcium oxalate lithiasis” (Merck & Co., Inc., priority 1980, dated 1984)

Molecular target: T1, pig liver glycolate oxidase (Sus scrofa, UniProt I3LVF1)
T1 construct: The enzyme was pig liver glycolate oxidase; from tissue; host or cells: pig liver
T1 sequence (I3LVF1 1-370): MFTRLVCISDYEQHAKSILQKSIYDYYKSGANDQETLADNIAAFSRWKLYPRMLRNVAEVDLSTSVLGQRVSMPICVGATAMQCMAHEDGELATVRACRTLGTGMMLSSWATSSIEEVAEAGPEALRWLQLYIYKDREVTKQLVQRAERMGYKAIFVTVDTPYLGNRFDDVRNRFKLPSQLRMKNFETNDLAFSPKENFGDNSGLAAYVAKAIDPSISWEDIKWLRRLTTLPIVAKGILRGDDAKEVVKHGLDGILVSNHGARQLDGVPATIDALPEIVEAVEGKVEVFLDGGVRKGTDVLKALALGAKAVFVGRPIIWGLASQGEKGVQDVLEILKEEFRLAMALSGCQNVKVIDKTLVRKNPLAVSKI
Assay: Glycolate oxidase enzyme inhibition (rate of reduction of sodium 2,6-dichlorophenol-indophenol by sodium glycolate, 600 nm)
Type: biochemical
Conditions: 25° C., 0.10 M phosphate buffer, pH 7.0, 3 mM EDTA, 2×10^-4 M sodium glycolate, 5×10^-5 M sodium 2,6-dichlorophenol-indophenol, initial rates 1 to 3 min
Description: The usefulness of the compounds of the present invention in treating urinary tract, especially renal, calcium oxalate lithiasis, was shown by the ability of these compounds to inhibit the glycolate oxidase enzyme. […] The activity of the enzyme, in turn, was measured by following the rate of reduction of sodium 2,6-dichlorophenol-indophenol by sodium glycolate in the presence of the enzyme. The enzyme was pig liver glycolate oxidase. The reaction was following spectrophotometrically at 600 nm. The assay was conducted at 25° C. in a 0.10 M phosphate buffer, pH 7.0, contining 3 mM EDTA. Initial substrate concentrations were 5×10^-5 M of sodium 2,6-dichlorophenol-indophenol and 2×10^-4 M of sodium glycolate. Reactions were initiated by the addition of enzyme. Initial rates during the period from 1 to 3 min. after the addition of enzyme were recorded on a Beckman Acta M-VI spectrophotometer. One control was run simultaneously with three test reactions, and all initial rates were adjusted to a common control rate. For further details of this procedure, see Randall et al., J. Med. Chem., 22, 6, 612 (1979).

| Structure (SMILES) | IC50 [µM] |
| --- | --- |
| O=C1NS(=O)(=O)C(c2csc(-c3ccc(Cl)c(Cl)c3)n2)=C1O [5-[2-(3,4-Dichlorophenyl)thiazol-4-yl]-4-hydroxy-3(2H)-isothiazolone-1,1-dioxide] | 0.11 |
| O=C1NS(=O)(=O)C(c2nc(-c3ccc(Cl)c(Cl)c3)cs2)=C1O [5-[4-(3,4-Dichlorophenyl)thiazol-2-yl]-4-hydroxy-3(2H)-isothiazolone-1,1-dioxide] | 0.6 |
